Data reported in article PMC6901909, “Synergy Pattern of Short Cationic Antimicrobial Peptides Against Multidrug-Resistant Pseudomonas aeruginosa” (Frontiers in Microbiology, 2019).
In brackets after ≈: the same amount, converted by molar mass. Peptide text beside a SMILES is read from it.

Tests used:
Assay in all cases: microbe, parasite or virus in culture
Type in all cases: cell-based, Pseudomonas aeruginosa
[1] = tested on: P. aeruginosa PA01-wt; settings: -wt, 18 h
Description: (§1) We selected six different P. aeruginosa isolates that were described as MDR and had been isolated from clinical and municipal waste water ([Schwartz et al., 2006]). The minimal inhibitory concentration (MIC) was determined in a microdilution assay using Mueller-Hinton (MH) broth following a previously published protocol ([Wiegand et al., 2008]). Briefly, a twofold serial dilution of the antibiotics and peptides were prepared and added to a bacteria solution, resulting in 2–5 10^5 CFU/ml. The microtiter plates (polypropylene, Corning) were incubated for 18 h at 37°C and MICs were taken visually.

[2] = tested on: MDR P. aeruginosa PA253; settings: MDR PA253, 18 h
Description: as §1

[3] = tested on: MDR P. aeruginosa PA 919; settings: MDR PA 919, 18 h
Description: as §1

[4] = tested on: MDR P. aeruginosa PA 910; settings: MDR PA 910, 18 h
Description: as §1

MIC against MDR isolates of PA, PA910 [4] [µM]	Compound	MIC against PA01 wt [1] [µM]	MIC against MDR isolates of PA, PA253 [2] [µM]	MIC against MDR isolates of PA, PA919 [3] [µM]	MIC against PA910 in μM (peptides, Table 4) [4] [µM]
	CC[C@H](C)[C@H](N)C(=O)N[C@@H](CC(C)C)C(=O)N[C@@H](CCCCN)C(=O)N[C@@H](Cc1c[nH]c2ccccc12)C(=O)N[C@@H](CCCCN)C(=O)N[C@@H](CCCNC(=N)N)C(=O)N[C@@H](CCCCN)C(=O)N[C@@H](Cc1c[nH]c2ccccc12)C(=O)N[C@@H](Cc1c[nH]c2ccccc12)C(=O)N[C@@H](CCCCN)C(=O)N[C@@H](Cc1c[nH]c2ccccc12)C(=O)N[C@@H](Cc1ccccc1)C(=O)N[C@@H](CCCNC(=N)N)C(N)=O [Indopt 7] (H-ILKWKRKWWKWFR-NH2)	2 (≈ 3.92 µg/mL)	8	32	4 (≈ 7.84 µg/mL)
	CC[C@H](C)[C@H](N)C(=O)N[C@@H](CC(C)C)C(=O)N[C@@H](CCCCN)C(=O)N[C@@H](Cc1c[nH]c2ccccc12)C(=O)N[C@@H](CCCCN)C(=O)N[C@H](C(=O)N[C@@H](Cc1ccccc1)C(=O)N[C@@H](CCCCN)C(=O)N[C@@H](Cc1c[nH]c2ccccc12)C(=O)N[C@@H](CCCCN)C(=O)N[C@@H](Cc1c[nH]c2ccccc12)C(=O)N[C@@H](Cc1ccccc1)C(=O)N[C@@H](CCCNC(=N)N)C(N)=O)[C@@H](C)CC [Indopt 10] (H-ILKWKIFKWKWFR-NH2)	2 (≈ 3.76 µg/mL)	8 to 16	32	4 (≈ 7.51 µg/mL)
	CC[C@H](C)[C@H](N)C(=O)N[C@@H](CC(C)C)C(=O)N[C@@H](CCCCN)C(=O)N[C@@H](Cc1c[nH]c2ccccc12)C(=O)N[C@@H](CCCCN)C(=O)N[C@@H](CCSC)C(=O)N[C@@H](Cc1ccccc1)C(=O)N[C@@H](CCCCN)C(=O)N[C@@H](Cc1c[nH]c2ccccc12)C(=O)N[C@@H](CCCCN)C(=O)N[C@@H](Cc1c[nH]c2ccccc12)C(=O)N[C@@H](Cc1ccccc1)C(=O)N[C@@H](CCCNC(=N)N)C(N)=O [Indopt 12] (H-ILKWKMFKWKWFR-NH2)	2 (≈ 3.79 µg/mL)	16	16	4 (≈ 7.59 µg/mL)
	CC(C)[C@H](NC(=O)[C@H](Cc1c[nH]c2ccccc12)NC(=O)[C@H](CCCNC(=N)N)NC(=O)[C@H](Cc1c[nH]c2ccccc12)NC(=O)[C@H](Cc1c[nH]c2ccccc12)NC(=O)[C@H](CCCNC(=N)N)NC(=O)[C@@H](N)CCCNC(=N)N)C(=O)N[C@H](C(=O)N[C@@H](Cc1c[nH]c2ccccc12)C(N)=O)C(C)C [LOP2] (H-RRWWRWVVW-NH2)	4 (≈ 5.71 µg/mL)	8	2	8 (≈ 11.4 µg/mL)
	CC[C@H](C)[C@H](NC(=O)[C@H](CCCNC(=N)N)NC(=O)[C@H](Cc1c[nH]c2ccccc12)NC(=O)[C@H](CCCNC(=N)N)NC(=O)[C@H](CCCNC(=N)N)NC(=O)[C@@H](N)CCCCN)C(=O)N[C@@H](Cc1c[nH]c2ccccc12)C(=O)N[C@@H](CC(C)C)C(=O)N[C@H](C(N)=O)C(C)C [LOP3] (H-KRRWRIWLV-NH2)	4 (≈ 5.25 µg/mL)	4 to 8	4	8 (≈ 10.5 µg/mL)
	CC[C@H](C)[C@H](NC(=O)[C@@H](NC(=O)[C@H](CCCNC(=N)N)NC(=O)[C@H](Cc1c[nH]c2ccccc12)NC(=O)[C@H](CCCNC(=N)N)NC(=O)[C@@H](N)CCCNC(=N)N)C(C)C)C(=O)N[C@H](C(=O)N[C@@H](CCCCN)C(=O)N[C@@H](Cc1c[nH]c2ccccc12)C(N)=O)C(C)C [LOP4] (H-RRWRVIVKW-NH2)	4 (≈ 5.19 µg/mL)	8	4	4 (≈ 5.19 µg/mL)
	CC[C@H](C)[C@H](NC(=O)[C@H](Cc1c[nH]c2ccccc12)NC(=O)[C@H](CCCCN)NC(=O)[C@H](CCCCN)NC(=O)[C@H](CC(C)C)NC(=O)[C@H](Cc1c[nH]c2ccccc12)NC(=O)[C@H](CCCCN)NC(=O)[C@@H](N)Cc1c[nH]c2ccccc12)C(=O)N[C@@H](CCCCN)C(N)=O [LOP5] (H-WKWLKKWIK-NH2)	4 (≈ 5.26 µg/mL)	8	8	8 (≈ 10.5 µg/mL)
	CC[C@H](C)[C@H](NC(=O)[C@H](CCCNC(=N)N)NC(=O)[C@H](CCCNC(=N)N)NC(=O)[C@H](CC(C)C)NC(=O)[C@@H](N)CCCNC(=N)N)C(=O)N[C@H](C(=O)N[C@H](C(=O)N[C@H](C(=O)N[C@@H](CCCNC(=N)N)C(=O)N[C@H](C(=O)N[C@@H](C)C(=O)N[C@@H](CCCNC(=N)N)C(N)=O)C(C)C)[C@@H](C)CC)C(C)C)C(C)C [Peptide R3] (H-RLRRIVVIRVAR-NH2)	16 (≈ 24.1 µg/mL)	16	16	32 (≈ 48.2 µg/mL)
16	CC[C@H](C)[C@H](NC(=O)[C@H](CCCNC(=N)N)NC(=O)[C@H](C)NC(=O)[C@H](CC(C)C)NC(=O)[C@@H](N)CCCNC(=N)N)C(=O)N[C@H](C(=O)N[C@H](C(=O)N[C@H](C(=O)N[C@@H](CCCNC(=N)N)C(=O)N[C@@H](Cc1c[nH]c2ccccc12)C(=O)N[C@@H](C)C(=O)N[C@@H](CCCNC(=N)N)C(N)=O)[C@@H](C)CC)C(C)C)C(C)C [Peptide W10] (H-RLARIVVIRWAR-NH2)	16 (≈ 24.1 µg/mL)	16	16	
